How the values were obtained:
[1] = Rat biodistribution study, heart-to-blood ratio of fluorine-18-labeled tracers; assay type: in vivo; settings: male Wistar rats, 10 min after tail vein administration of fluorine-18-labeled tracer (1-2 MBq), n = 3-6
Text: (§1) The experimental protocols were approved by the Animal Ethics Committee of the National Cerebral and Cardiovascular Center, Research Institute, Osaka, Japan (approval number 18019) and conducted in strict accordance with the Guide for the Care and Use of Laboratory Animals published by the US National Institutes of Health and the ARRIVE guidelines. Anesthesia was induced in male Wistar rats (n = 3–6 for each radiotracer, weighing 200–250 g on average, Charles River Laboratories, Research Models and Services, Germany GmbH, Sulzfeld, Germany) by using 5% isoflurane and maintained during the whole experiment with 2% isoflurane. Large animal PET imaging was performed on rhesus macaques (n = 2, weighing 3.9–4.2 kg, Primate Research Institute Kyoto University, Aichi, Japan). The induction of anesthesia in non-human primates (NHPs) was conducted by intramuscular injection of ketamine (1.5 mg/kg) and xylazine (0.6 mg/kg) to allow animal preparation and handling. After a tracheal cannula was inserted, 1.5% sevoflurane (SEVOFLURANE Inhalation Solution, Pfizer Japan Inc., Tokyo, Japan) vaporized with 100% oxygen was inhaled, and the tidal volume and respiratory rate of the ventilator were monitored and maintained in the normal range throughout the imaging sessions with an anesthesia workstation (Apollo®, Drägerwerk AG & Co. KGaA, Lübeck, Germany).
(§2) Preliminary PET imaging of [^18F]AF78(F) in rodents (n = 2) and NHPs (n = 2) was obtained according to a previously described protocol. For the rat biodistribution studies (n = 3–6 for each tracer), radiotracers (1–2 MBq) were administered via the tail vein. Ten minutes after radiotracer administration, the animals were euthanized. The organs of interest were harvested for tissue counting with a γ-counter (2480 Automatic Gamma Counter WIZARD^2, PerkinElmer LAS GmbH, Rodgau, Germany). Following weight and decay correction of the tissue counts, the heart-to-blood (H/B) ratios were calculated. A detailed experimental description can be found in the Supplementary Material. […]
PET Imaging and Biodistribution Study […]
Barbara, CA, US). For the rat biodistribution studies, radiotracers (1–2 MBq) were administered via the tail vein. Ten minutes after radiotracer administration, the animals were euthanized. The organs of interest were harvested for tissue counting with a γ-counter (2480 Automatic Gamma Counter WIZARD2, PerkinElmer, Rodgau, Germany). Following weight and decay correction of the tissue counts, the heart-to-blood ratios were calculated. NHPs (n = 2) were anesthetized during the imaging study and studied on a clinical PET scanner (PCA-2000A, Toshiba Medical Systems Corporation, Tochigi, Japan). After a 5 min transmission scan and an intravenous injection of the […]
and 300 s × 11) was started. […]

NET [2] = target: T1, NET (Homo sapiens, UniProt P23975); test: Competitive cellular uptake assay against [3H]NE uptake in SK-N-SH cells
T1 sequence (P23975 whole entry): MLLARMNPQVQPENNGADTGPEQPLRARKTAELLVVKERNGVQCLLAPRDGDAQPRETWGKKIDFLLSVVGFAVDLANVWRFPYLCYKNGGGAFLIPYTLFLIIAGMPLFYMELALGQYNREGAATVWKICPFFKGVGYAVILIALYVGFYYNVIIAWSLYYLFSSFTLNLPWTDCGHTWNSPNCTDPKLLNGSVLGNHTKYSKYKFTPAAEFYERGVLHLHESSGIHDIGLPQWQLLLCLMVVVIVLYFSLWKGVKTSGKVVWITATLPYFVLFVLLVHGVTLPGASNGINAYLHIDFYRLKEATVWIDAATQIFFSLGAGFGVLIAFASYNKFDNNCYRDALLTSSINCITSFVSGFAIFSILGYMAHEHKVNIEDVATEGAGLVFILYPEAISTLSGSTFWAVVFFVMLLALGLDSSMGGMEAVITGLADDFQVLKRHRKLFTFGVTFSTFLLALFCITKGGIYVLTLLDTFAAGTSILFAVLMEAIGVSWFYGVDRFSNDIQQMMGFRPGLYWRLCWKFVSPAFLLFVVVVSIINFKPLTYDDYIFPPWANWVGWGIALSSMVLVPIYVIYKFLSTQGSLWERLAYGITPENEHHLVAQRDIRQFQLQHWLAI
Text: It should be noted that the NET affinities of the tested compounds are expressed as IC50 in the current manuscript instead of the dissociation constant Kd. First, because all the tested compounds are substrates of NET that can be transported, they share the same binding site. […] Therefore, the IC50 value in the current study is considered equal to Kd without additional correction.
Competitive Cellular Uptake Studies
were cultivated according to the instructions from the supplier (Sigma-Aldrich Chemie GmbH,
Munich, Germany). One day before the competitive assay, the cells were seeded in 24-well plates
at a density of 1 × 10^5 cells/well and incubated in 0.5 mL of Eagle’s minimum essential medium
(EMEM) at 37 °C overnight. The medium was removed, and the cells were washed with 0.5 mL of
Dulbecco’s modified Eagle’s medium (DMEM) with low glucose containing 0.1% bovine serum
albumin (BSA). After washing, DMEM/0.1% BSA (300 µL) was added along with 50 µL of pargyline
presence of pyrogallol (20 µM final concentration, catechol-O-methyl transferase inhibitor) [1] and
pargyline (100 µM final concentration, monoamine oxidase inhibitor) [2], 50 µL of working solution
GBq/mmol, NET678250UC, PerkinElmer LAS GmbH, Germany) in DMEM/0.1% BSA together with
50 µL of the test compounds (desipramine, MIBG, HED and cold re ferences, each at different
incubation volume. The addition of the inhibitors of both enzymes involved in the natural
time. The plates were incubated at 37°C for 60 min. The cells were then washed with ice-cold PBS
(2 × 0.5 mL) followed by the addition of NaOH solution (0.1 N, 500 μL) and collection of the cell
lysates. Cell lysates (140 µL) were mixed with 1.8 mL of scintillation cocktail (Hionic-Fluor,
PerkinElmer, Rodgau, Germany) and radioactivity was measured in a liquid scintillation analyzer
All experimental data are presented as mean
± SD, with individual numbers measured in triplicate in experiment performed on 2–3 separate

NET [3] = target: T1, NET; design: Human neuroblastoma cell line SK-N-SH from metastatic bone marrow stably expressing NET; host or cells: SK-N-SH human neuroblastoma cells; method as in PMID 23306137; settings: NE-NET; read-out: Michaelis constant Km; cited from earlier work
NET [4] = test: PET imaging in non-human primates with and without desipramine blockade; assay type: in vivo, rhesus macaques; settings: NHPs, n = 2; specificity proven by desipramine 1 mg/kg i.v. 10 min before tracer
Text: as §1, with “Large animal PET imaging was performed on rhesus macaques (n = 2, weighing 3.9–4.2 kg, Primate Research Institute Kyoto University, Aichi, Japan). The induction of anesthesia in non-human primates (NHPs) was conducted by intramuscular injection of ketamine (1.5 mg/kg) and xylazine (0.6 mg/kg) to allow animal preparation and handling.” left out
Preliminary PET imaging of [^18F]AF78(F) in rodents (n = 2) and NHPs (n = 2) was obtained according to a previously described protocol. […] Following weight and decay correction of the tissue counts, the heart-to-blood (H/B) ratios were calculated. […]

[5] = PET/CT imaging in healthy rats; assay type: in vivo; settings: n = 2, 10-20 MBq via tail vein
Method: as §2
days. IC50 values were determined using nonlinear regression log(inhibitor) vs. normalized response in GraphPad Prism 8.4.3.
PET Imaging and Biodistribution Study
PET imaging of [18F]AF78(F) in rodents (n = 2) was obtained using a dedicated small animal PET system (microPET Focus 120, Siemens, Germany). […]
initiated with acquisition in list-mode format. […] Following weight and decay correction of the tissue counts, the heart-to-blood ratios were calculated. […]
injected 10 min before tracer administration, after which the PET scan started immediately. […] The obtained PET images were analyzed with the public domain tool AMIDE imaging software (A Medical Imaging Data Examiner, version 1.01).

Row | SMILES | heart-to-blood (H/B) ratio [1] | IC50 (NET [2]) [µM] | other results
1 | N=C(N)NCCc1ccc(OCCCF)c(I)c1 [AF78(I)] | 5.9 ± 0.4 | 6.51 ± 3.32 | fold less potent than AF78(F) (NET [2]; ratio of NET affinities in the competitive cellular uptake assay): 15 fold
2 | NC[C@H](O)c1ccc(O)c(O)c1 [NE, norepinephrine] | – | – | Km (NET [3]): 0.28 ± 0.03 µM
3 | N=C(N)NCCc1ccc(OCCCF)c(Br)c1 [AF78(Br)] | 8.7 ± 1.4 | 3.32 ± 0.72 | –
4 | N=C(N)NCCc1ccc(OCCCF)c(F)c1 [AF78(F)] | 13.2 ± 1.2 | – | uptake in the heart (PET) (NET [4]): distinct NET-mediated uptake in the heart; systemic distribution of the radiotracer (PET/CT) [5]: homogenous distribution throughout the left ventricular wall
5 | N=C(N)NCCc1ccc(OCCCF)c(O)c1 [AF78(OH)] | – | 22.7 ± 3.58 | –
6 | N=C(N)NCCc1ccc(OCCCF)c(Cl)c1 [AF78(Cl)] | 10.4 ± 0.4 | 0.94 ± 0.28 | –
7 | N=C(N)NCCc1ccc(OCCCF)cc1 [AF78(H)] | – | 4.17 ± 0.92 | –
